{"source": "patent US11007269B2", "about": "“P53 degradation inducing molecule and pharmaceutical composition” (Tokyo University of Science Foundation, priority 2016, dated 2021)", "molecular_target": "T1, MDM2 protein (Mus musculus, UniProt P23804)", "T1 construct": "from tissue; host or cells: liver of C57BL/6J wild-type mice", "T1 sequence (P23804 whole entry)": "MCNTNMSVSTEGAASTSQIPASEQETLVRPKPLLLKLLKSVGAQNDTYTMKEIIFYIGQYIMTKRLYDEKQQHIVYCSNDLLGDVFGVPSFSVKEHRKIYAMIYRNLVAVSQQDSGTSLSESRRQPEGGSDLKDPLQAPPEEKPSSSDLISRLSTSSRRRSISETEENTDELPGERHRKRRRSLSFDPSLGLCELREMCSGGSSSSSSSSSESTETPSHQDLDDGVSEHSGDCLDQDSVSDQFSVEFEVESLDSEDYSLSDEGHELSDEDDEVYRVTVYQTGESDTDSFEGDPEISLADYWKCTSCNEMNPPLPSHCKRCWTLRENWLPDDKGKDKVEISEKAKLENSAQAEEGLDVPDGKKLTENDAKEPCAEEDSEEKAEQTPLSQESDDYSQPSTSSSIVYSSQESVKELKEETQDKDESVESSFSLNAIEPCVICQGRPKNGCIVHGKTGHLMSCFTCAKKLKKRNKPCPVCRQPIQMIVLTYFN", "assay": "Western blot of MDM2 protein in liver of mice given the compound", "type": "in vivo", "settings": "C57BL/6J mice, 48 hours after administration", "protocol": "In Example 4, degradation (knockdown) of the endogenous wild-type p53 protein and MDM2 protein in mouse individuals in which TIBC-CANDDY_MLN had been administered was evaluated by Western blot analysis.\nTIBC-CANDDY_MLN was dissolved in DMSO immediately before administration, and then dissolved in corn oil (Code No. 25606-55, Nacalai Tesque) so that the concentration of DMSO was 10 vol %, and then a dose of 50 mg/kg body weight or 100 mg/kg body weight was administered intraperitoneally to C57BL/6J wild-type mice (7 to 8 weeks old, male) (CLEA Japan, Inc.) (n=3). As a control, an injection carrier (corn oil containing 10 vol % DMSO) was used. The mice were kept under an environment of ad libitum access to food and water. […]\nThe frozen tissue (0.04 g) was triturated, and then 980 μL of 1×TKM tissue lysis buffer (50 mM triethanolamine (pH 7.8), 50 mM KCl, 5 mM MgCl2, 0.25 M sucrose, 1 mM PMSF, protein inhibitors cocktail-EDTA free (Code No. 03969-21, Nacalai Tesque), 1 mM DTT, Recombinant RNase inhibitor 5 μl/mL (40 U/μl, Cat No. 2313A, Lot No. K8402DA, TAKARA Bio)) was added, and dissolved by rotation for 15 minutes (1 rpm, 25° C.). […] The concentration of proteins in the tissue extract was quantified with a spectrophotometer with the tissue extract that had been diluted 20 times using DEPC-treated water. […]"}
{"smiles": "CC(C)C[C@H](NC(=O)CNC(=O)c1cc(Cl)ccc1Cl)C(=O)NCCCCCCC(=O)Nc1ccc(C(=O)/C=C/c2ccc(I)cc2)cc1", "note": "[TIBC-CANDDY_MLN]", "values": [{"measurement": "amount of MDM2 protein in the liver", "setting": "50 mg/kg body weight intraperitoneally", "result": "reduced"}, {"measurement": "amount of MDM2 protein in the liver", "setting": "100 mg/kg body weight intraperitoneally", "result": "reduced"}]}
